# Assay results taken from patent US20080255238A1, “COMPOSITION CONTAINING A THIOUREA DERIVATIVE FOR PREVENTING OR TREATING PRURITIC OR IRRITANT SKIN DISEASES” (AMOREPACIFIC CORPORATION, priority 2004, published 2008).
# Columns and labels:
# Format in all cases: in vivo
# BALB/C mice = assay: Itching induced by compound 48/80 (C48/80) in BALB/C mice, oral administration; settings: for % Inhibition (mean ± SE): scratching frequency over 30 min, C48/80 1 h after dosing, BALB/C mice; for inhibitory effects on itching (in words): C48/80, BALB/C mice
# Text: Itching Induced by Compound 48/80 (C48/80) in BALB/C Mice
# The frequency of scratching induced by an itching-inducing substance varies depending on mouse strain. For example, it was reported that BALB/C mice are less sensitive to histamines and serotonin than ICR mice (Inagaki et al., 2001, Skin Pharmacol. Appl. Skin Physiol., 14, pp 87-96). […] In this experiment, BALB/C mice received C48/80 to induce itching. One day before the experiment, the rostral part of the skin on the back of BALB/C mice (19˜21 g, 6˜12 mice/group) was clipped. After compound 1 was dissolved in HP-β-CD, and compounds 2 and 3 were dissolved in a physiological saline solution containing 10% ethanol and 10% Tween 80, the solutions were orally administered (10 ml/kg) to the mice. One hour after the administration, C48/80 (50 μg/50 μl/mouse) was dissolved in a physiological saline solution and injected intradermally into the back skin of mice. Immediately after the injection, the mice were housed in a transparent cage and then the frequency of scratching of the injected site by the hind paws was counted for 30 minutes. The frequency of scratching in test groups administered with the drugs was compared to that in a control group administered with C48/80 alone. The decrease in the frequency of scratching in the test groups was determined as an index of inhibitory effects on itching. The decrease in the frequency of scratching was expressed as a percentage of inhibition to determine inhibitory effects of each compound on itching.
# ICR mice [1] = assay: Itching induced by compound 48/80 (C48/80) in ICR mice, intradermal administration
# Text: Itching Induced by Compound 48/80 (C48/80) in ICR Mice
# Intradermal Administration
# ICR mice suffer from itching upon administration of histamines, and C48/80 (condensation product of N-methyl-p-methoxyphenethylamine with formaldehyde, Sigma, U.S.A.) is a substance that stimulates connective tissues and skin mast cells to release mediators, such as histamines, causing itching. C48/80 causes itching when intradermally administered to humans (Rukwied et al., 2000, Br. J. Pharmacol., 142, pp 1114-1120). In this experiment, ICR mice received C48/80 to induce itching. One day before the experiment, the rostral part of the skin on the back of male ICR mice (28˜32 g, 4˜11 mice/group) was clipped. After the drug (compound 1, 50 μl/mouse) was dissolved in hydroxypropyl-β-cyclodextrin (HP-β-CD; Mitsubishi Ltd., Japan) and C48/80 (50 μg/50 μl/mouse) was dissolved in a physiological saline solution, the solutions were simultaneously injected intradermally into the back skin of mice. Immediately after the injection, the mice were placed in a transparent cage and then the frequency of scratching of the injected site by the hind paws was counted for 60 minutes. The frequency of scratching in test groups administered with the drug was compared to that in a control group administered with C48/80 alone. The decrease in the frequency of scratching in the test groups was determined as an index of inhibitory effects on itching. The decrease in the frequency of scratching was expressed as a percentage of inhibition to determine inhibitory effects of each compound on itching.
# ICR mice [2] = assay: Itching induced by histamine in ICR mice, oral administration; settings: for % Inhibition (mean ± SE): scratching frequency over 30 min, histamine 100 nmol/mouse i.d. 1 h after dosing
# Text: Itching Induced by Histamine in ICR Mice
# It is known that the itching response induced by histamine in rodents is generally weaker than that in humans (Kuraishi et al., 1995, Eur. J. Pharmacol. 275, pp 229-233). However, it is known that uniquely, ICR mice sensitively respond to histamine, and this leads to itching response (Maekawa et al., 2000, Jpn. J. Pharmacol. 84, pp 462-466). As is widely known, histamines are representative itching mediators and obviously induce itching in human subjects (Simone et al., 1987, Somatosens. Res. 5, pp 81-92). In this experiment, ICR mice received […]. One day before the experiment, the rostral part of the skin on the back of male ICR mice (28˜32 g, 5˜8 mice/group was clipped. The mice were fasted for 18 hours before experimentation. The drug (compound 1, 0.5 ml/mouse) was dissolved in hydroxypropyl-β-cyclodextrin (HP-β-CD; Mitsubishi Ltd., Japan), and then orally administered to the mice. One hour after the administration, histamine (100 nmol/50 μl/mouse) was dissolved in a physiological saline solution and injected intradermally into the back skin of mice. Immediately after the injection, the mice were placed in a transparent cage, and then the frequency of scratching of the injected site by the hind paws was counted for 30 minutes. The frequency of scratching in test groups administered with the drug was compared to that in a control group administered with histamine alone. The decrease in the frequency of scratching in the test groups was determined as an index of inhibitory effects on itching. The decrease in the frequency of scratching was expressed as a percentage of inhibition to determine inhibitory effects of each compound on itching.
SMILES,% Inhibition (mean ± SE) (BALB/C mice; dose 3 mg) [%],% Inhibition (mean ± SE) (BALB/C mice; dose 10 mg) [%],% Inhibition (mean ± SE) (BALB/C mice; dose 30 mg) [%],inhibitory effects on itching (in words) (BALB/C mice),further results
"CC(C)(C)c1ccc(CNC(=S)NCc2ccc(NS(C)(=O)=O)c(Cl)c2)cc1 [Compound 2, 1-(4-t-butylbenzyl)-3-(3-chloro-4-methanesulfonylaminobenzyl)thiourea]",0.89 ± 7.23,7.42 ± 10.43,44.53 ± 11.07,,
"CN1CCC(=C2c3ccccc3CC(=O)c3sccc32)CC1 [Ketotifen, ketotifen, reference compound]",,−24.91 ± 15.09,,no inhibitory effects on itching,
"CN(C)CCC(c1ccc(Cl)cc1)c1ccccn1 (stereo not drawn) [chlorpheniramine, reference compound]",−22.90 ± 28.21,,,no inhibitory effects on itching,"inhibitory effects on itching (in words) (ICR mice [1]; C48/80, ICR mice): no inhibitory effects on itching; % Inhibition (mean ± SE) (ICR mice [1]; scratching frequency over 60 min, C48/80 50 μg/mouse i.d., ICR mice, dose 0.3 mg/mouse): −77.61 ± 70.54%"
"Cc1cc(CNC(=S)NCc2ccc(C(C)(C)C)cc2)ccc1NS(C)(=O)=O [Compound 3, 1-(4-t-butylbenzyl)-3-(3-methyl-4-methanesulfonylaminobenzyl)thiourea]",8.21 ± 5.82,11.78 ± 15.26,38.76 ± 7.77,,
"CN1CCCC(n2nc(Cc3ccc(Cl)cc3)c3ccccc3c2=O)CC1 (stereo not drawn) [Azelastine chloride, reference compound]",,,,,antipruritic effects (in words) (ICR mice [2]; histamine): potent antipruritic effects in a dose-dependent manner; % Inhibition (mean ± SE) (ICR mice [2]; dose 1 mg/mouse): 63.7 ± 26.6%; % Inhibition (mean ± SE) (ICR mice [2]; dose 10 mg/mouse): 91.7 ± 6.8%
